Experimental data reported in the supplement of paper PMC10307832.

Assays:
Test in all cases: relative viability (nuclei count vs DMSO), 5 days (fraction); higher = more cells survive
NCI-H1395 = test system: NCI-H1395
Outline: (§1)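 Relative viability is defined as nuclei in treated wells over nuclei in vehicle wells. Duplicate plates were run and medians reported. Lung cancer cell lines in 1536-well plates were dosed by pin tool one day after seeding, with one drug or with a fixed anchor-drug dose plus five library-drug doses (not always all listed) in √10 steps, and nuclei were counted after 5 days.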

NCI-H2009 = test system: NCI-H2009
Outline: as §1

SW 1573 = test system: SW 1573
Outline: as §1

HCC-366 = test system: HCC-366
Outline: as §1

NCI-H727 = test system: NCI-H727
Outline: as §1

NCI-H23 = test system: NCI-H23
Outline: as §1

NCI-H2228 = test system: NCI-H2228
Outline: as §1

HCC-827 = test system: HCC-827
Outline: as §1

CAL-12T = test system: CAL-12T
Outline: as §1

LCLC-103H = test system: LCLC-103H
Outline: as §1

HOP-62 = test system: HOP-62
Outline: as §1

NCI-H460 = test system: NCI-H460
Outline: as §1

NCI-H1355 = test system: NCI-H1355
Outline: as §1

EMC-BAC-2 = test system: EMC-BAC-2
Outline: as §1

COR-L 105 = test system: COR-L 105
Outline: as §1

NCI-H1755 = test system: NCI-H1755
Outline: as §1

HARA = test system: HARA
Outline: as §1

NCI-H1975 = test system: NCI-H1975
Outline: as §1

NCI-H1915 = test system: NCI-H1915
Outline: as §1

NCI-H1437 = test system: NCI-H1437
Outline: as §1

SK-LU-1 = test system: SK-LU-1
Outline: as §1

A-427 = test system: A-427
Outline: as §1

O=C(O)c1ccc(-c2c[nH]c3ncc(-c4ccccc4)cc23)cc1C1CCCC1 + Cc1cc(Nc2cc(N3CCN(C)CC3)nc(Sc3ccc(NC(=O)C4CC4)cc3)n2)n[nH]1 [Tozasertib] (partner 0.1 µM)
relative viability (NCI-H1395; first compound 0.04 µM): 0.818
relative viability (NCI-H1395; first compound 0.1265 µM): 0.793
relative viability (NCI-H1395; first compound 0.4 µM): 0.676
relative viability (NCI-H1395; first compound 1.265 µM): 0.604
relative viability (NCI-H2009; first compound 0.04 µM): 0.734
relative viability (NCI-H2009; first compound 0.1265 µM): 0.776
relative viability (NCI-H2009; first compound 0.4 µM): 0.681
relative viability (NCI-H2009; first compound 1.265 µM): 0.564
relative viability (SW 1573; first compound 0.04 µM): 0.183
relative viability (SW 1573; first compound 0.1265 µM): 0.194
relative viability (SW 1573; first compound 0.4 µM): 0.211
relative viability (SW 1573; first compound 1.265 µM): 0.148
relative viability (HCC-366; first compound 0.04 µM): 0.128
relative viability (HCC-366; first compound 0.1265 µM): 0.163
relative viability (HCC-366; first compound 0.4 µM): 0.0869
relative viability (HCC-366; first compound 1.265 µM): 0.0888
relative viability (NCI-H727; first compound 0.04 µM): 0.67
relative viability (NCI-H727; first compound 0.1265 µM): 0.533
relative viability (NCI-H727; first compound 0.4 µM): 0.407
relative viability (NCI-H727; first compound 1.265 µM): 0.578
relative viability (NCI-H23; first compound 0.04 µM): 0.355
relative viability (NCI-H23; first compound 0.1265 µM): 0.369
relative viability (NCI-H23; first compound 0.4 µM): 0.364
relative viability (NCI-H23; first compound 1.265 µM): 0.353
relative viability (NCI-H2228; first compound 0.04 µM): 0.244
relative viability (NCI-H2228; first compound 0.1265 µM): 0.272
relative viability (NCI-H2228; first compound 0.4 µM): 0.218
relative viability (NCI-H2228; first compound 1.265 µM): 0.186
relative viability (HCC-827; first compound 0.04 µM): 0.459
relative viability (HCC-827; first compound 0.1265 µM): 0.475
relative viability (HCC-827; first compound 0.4 µM): 0.404
relative viability (HCC-827; first compound 1.265 µM): 0.328
relative viability (CAL-12T; first compound 0.04 µM): 0.314
relative viability (CAL-12T; first compound 0.1265 µM): 0.374
relative viability (CAL-12T; first compound 0.4 µM): 0.315
relative viability (CAL-12T; first compound 1.265 µM): 0.337
relative viability (LCLC-103H; first compound 0.04 µM): 0.538
relative viability (LCLC-103H; first compound 0.1265 µM): 0.552
relative viability (LCLC-103H; first compound 0.4 µM): 0.4
relative viability (LCLC-103H; first compound 1.265 µM): 0.392
relative viability (HOP-62; first compound 0.04 µM): 0.393
relative viability (HOP-62; first compound 0.1265 µM): 0.332
relative viability (HOP-62; first compound 0.4 µM): 0.304
relative viability (HOP-62; first compound 1.265 µM): 0.308
relative viability (NCI-H460; first compound 0.04 µM): 0.413
relative viability (NCI-H460; first compound 0.1265 µM): 0.384
relative viability (NCI-H460; first compound 0.4 µM): 0.491
relative viability (NCI-H460; first compound 1.265 µM): 0.306
relative viability (NCI-H1355; first compound 0.04 µM): 0.56
relative viability (NCI-H1355; first compound 0.1265 µM): 0.632
relative viability (NCI-H1355; first compound 0.4 µM): 0.522
relative viability (NCI-H1355; first compound 1.265 µM): 0.281
relative viability (EMC-BAC-2; first compound 0.04 µM): 0.29
relative viability (EMC-BAC-2; first compound 0.1265 µM): 0.283
relative viability (EMC-BAC-2; first compound 0.4 µM): 0.272
relative viability (EMC-BAC-2; first compound 1.265 µM): 0.272
relative viability (COR-L 105; first compound 0.04 µM): 0.304
relative viability (COR-L 105; first compound 0.1265 µM): 0.36
relative viability (COR-L 105; first compound 0.4 µM): 0.357
relative viability (COR-L 105; first compound 1.265 µM): 0.36
relative viability (NCI-H1755; first compound 0.04 µM): 0.609
relative viability (NCI-H1755; first compound 0.1265 µM): 0.628
relative viability (NCI-H1755; first compound 0.4 µM): 0.514
relative viability (NCI-H1755; first compound 1.265 µM): 0.509
relative viability (HARA; first compound 0.04 µM): 0.104
relative viability (HARA; first compound 0.1265 µM): 0.0989
relative viability (HARA; first compound 0.4 µM): 0.197
relative viability (HARA; first compound 1.265 µM): 0.0904
relative viability (NCI-H1975; first compound 0.04 µM): 0.681
relative viability (NCI-H1975; first compound 0.1265 µM): 0.875
relative viability (NCI-H1975; first compound 0.4 µM): 0.794
relative viability (NCI-H1975; first compound 1.265 µM): 0.729
relative viability (NCI-H1915; first compound 0.04 µM): 0.445
relative viability (NCI-H1915; first compound 0.1265 µM): 0.427
relative viability (NCI-H1915; first compound 0.4 µM): 0.364
relative viability (NCI-H1915; first compound 1.265 µM): 0.275
relative viability (NCI-H1437; first compound 0.04 µM): 0.402
relative viability (NCI-H1437; first compound 0.1265 µM): 0.466
relative viability (NCI-H1437; first compound 0.4 µM): 0.398
relative viability (NCI-H1437; first compound 1.265 µM): 0.405
relative viability (SK-LU-1; first compound 0.04 µM): 0.296
relative viability (SK-LU-1; first compound 0.1265 µM): 0.347
relative viability (SK-LU-1; first compound 0.4 µM): 0.298
relative viability (SK-LU-1; first compound 1.265 µM): 0.292
relative viability (A-427; first compound 0.04 µM): 0.23
relative viability (A-427; first compound 0.1265 µM): 0.255
relative viability (A-427; first compound 0.4 µM): 0.182
relative viability (A-427; first compound 1.265 µM): 0.182
